Consider three molecules from US20120003655A1, “IDENTIFICATION OF NEUROPROTECTIVE AGENTS USING PRO-INFLAMMATORY HUMAN GLIAL CELLS” (The Salk Institute for Biological Studies, priority 2008, published 2012).

The subject of test [1] is ALS. As to conditions: ALS patients; cited from earlier work.
In test [2] the test system is recruitment of Nurr1 at iNOS-promoter. In words: ChIP assay, Nurr1 recruitment to iNOS-promoter in mouse primary astrocytes. It counts as cell-based. As to conditions: SB21 pre-incubation, IL1β stimulation. As for the experimental part:
FIGS. 15A-I show the CoREST complex requirement for Nurr1-mediated repression in astrocytes. (FIG. 15A) IL1β stimulation enhances physical association of Nurr1 and p65 in mouse primary astrocytes. Lysates of astrocytes stimulated with IL1β (10 ng/ml) for the indicated times were immunoprecipitated with anti-Nurr1 antibody and Western blots were developed with anti-p65 antibody. Equal loading was determined as described in FIG. 12F. (FIG. 15B) Recruitment of Nurr1 and p65 to iNOS-promoter in mouse primary astrocyte shown by ChIP assay. Data represent fold enrichment of iNOS-promoter precipitated with the indicated antibodies compared to control IgG as determined by qPCR. […] Mouse primary astrocytes were treated with SB21 as described in FIG. 12A. Data represent fold enrichment of iNOS-promoter precipitated with antibody against Nurr1 compared to control IgG as determined by qPCR. […] Data represent fold enrichment of iNOS-promoter precipitated with the indicated antibodies compared to control IgG as determined by qPCR. […] Cells were stimulated with 10 ng/ml IL1β for 6 h and mRNA expression of iNOS (FIG. 15F), CSF1 (FIG. 15G) and Ncf1 (FIG. 15H) was determined by qPCR. […]
(§1) ChIP assay. […] Quantitative PCR (qPCR) was performed with SYBR-GREEN PCR master Mix (ABI) or SYBR-GreenER (Invitrogen) and analyzed on a 7200 real time PCR system (ABI).

Test [3] relates to interaction of Nurr1 and p65. In words: Co-immunoprecipitation of Nurr1 and p65 in LPS-stimulated BV2 cells. The format is cell-based, mouse. As to conditions: SB21 1 h prior to LPS (1 μg/ml), co-IP and Western blot. As for the experimental part: (§2) FIGS. 12A-I show Nurr1 acting as an RXR-independent, GSK3β-dependent transrepressor for NF-κB. (FIG. 12A) Nurr1 is recruited to the TNFα-promoter in response to LPS. This recruitment is blocked by the GSK3β-specific inhibitor SB216763 (SB21). BV2 cells were pre-incubated with DMSO or 30 μM SB21 for 1 h followed by LPS stimulation for the indicated times before ChIP assay. […] (FIG. 12B) Nurr1-mediated repression is independent of DNA binding and RXR dimerization. RAW264.7 cells were transfected with wild type Nurr1, P-box mutant Nurr1C280A/E281A (CEAA) and I-box mutant Nurr1K555A/L556A/L227A (KLL). iNOS-promoter activity in RAW264.7 cells measured by luciferase-reporter assay. *, p<0.01 compared to control (Mock). (FIG. 12C) siRNA against Ubc9 abolishes Nurr1-mediated transrepression of iNOS-promoter activity. *, p<0.01 compared to Nurr1 with control siRNA. (FIG. 12D) K558 and K576 are the predominant SUMOylation sites of Nurr1. […] Equal loading was determined by re-blotting using anti-Nurr1 antibody. […] Nurr1 expression vector was transfected into RAW264.7 cells together with control siRNA or siRNA against GSK3β and iNOS-promoter activity was determined as described before. *, p<0.01 compared to Nurr1 with control siRNA. (FIG. 12I) S468A mutant of p65 abolishes Nurr1-mediated repression of iNOS-promoter activity. iNOS-promoter activity was determined as described before. […]
For orientation: A western blot detects proteins with antibodies after separation by electrophoresis.

Test [4] relates to recruitment of Nurr1 to the TNFα-promoter. In words: ChIP assay, Nurr1 recruitment to TNFα-promoter in BV2 cells. As to conditions: 30 μM SB21 for 1 h followed by LPS. It counts as cell-based, mouse. As for the experimental part:
as §2, with “(Mock).” for “(Mock). (FIG. 12C) siRNA against Ubc9 abolishes Nurr1-mediated transrepression of iNOS-promoter activity. *, p<0.01 compared to Nurr1 with control siRNA. (FIG. 12D) K558 and K576 are the predominant SUMOylation sites of Nurr1.”
as §1

Test [5] deals with T1, Nurr1 (NR4A2), endogenous protein in mouse cells (mouse, UniProt Q06219 1-598).
T1 construct: Endogenous protein, immunoprecipitated or blotted with anti-Nurr1 (E-20, Santa Cruz)
The experiment in a line: co-IP from BV2 lysates, anti-Nurr1 IP, anti-p65 Western blot (FIG. 12F). Here is the method:
Lysates of BV2 cells stimulated with LPS (1 μg/ml) for the indicated times were immunoprecipitated with anti-Nurr1 antibody and Western blots were developed with anti-p65 antibody. Equal loading was determined by re-blotting using anti-Nurr1 antibody. (FIG. 12G) SB21 impairs the binding of Nurr1 and p65 in a dose-dependent manner. BV2 cells were incubated with SB21 at the indicated concentrations for 1 h prior to stimulation with LPS (1 μg/ml). IP and Western blotting were performed as described in FIG. 12F. (FIG. 12H) siRNA against GSK3β abolishes Nurr1-mediated repression of iNOS-promoter activity. Nurr1 expression vector was transfected into RAW264.7 cells together with control siRNA or siRNA against GSK3β and iNOS-promoter activity was determined as described before. *, p<0.01 compared to Nurr1 with control siRNA. (FIG. 12I) S468A mutant of p65 abolishes Nurr1-mediated repression of iNOS-promoter activity. iNOS-promoter activity was determined as described before.
Co-immunoprecipitations and Western blotting. Hela cells or NIH3T3 cells were transfected using Lipofectamine 2000 reagent (Invitrogen) following manufacturer's protocol. Transfected cells were stimulated by 10 ng/ml recombinant human or mouse mIL1β (R & D system) for the indicated times prior to harvesting. […]

T1 sequence (Q06219 whole entry): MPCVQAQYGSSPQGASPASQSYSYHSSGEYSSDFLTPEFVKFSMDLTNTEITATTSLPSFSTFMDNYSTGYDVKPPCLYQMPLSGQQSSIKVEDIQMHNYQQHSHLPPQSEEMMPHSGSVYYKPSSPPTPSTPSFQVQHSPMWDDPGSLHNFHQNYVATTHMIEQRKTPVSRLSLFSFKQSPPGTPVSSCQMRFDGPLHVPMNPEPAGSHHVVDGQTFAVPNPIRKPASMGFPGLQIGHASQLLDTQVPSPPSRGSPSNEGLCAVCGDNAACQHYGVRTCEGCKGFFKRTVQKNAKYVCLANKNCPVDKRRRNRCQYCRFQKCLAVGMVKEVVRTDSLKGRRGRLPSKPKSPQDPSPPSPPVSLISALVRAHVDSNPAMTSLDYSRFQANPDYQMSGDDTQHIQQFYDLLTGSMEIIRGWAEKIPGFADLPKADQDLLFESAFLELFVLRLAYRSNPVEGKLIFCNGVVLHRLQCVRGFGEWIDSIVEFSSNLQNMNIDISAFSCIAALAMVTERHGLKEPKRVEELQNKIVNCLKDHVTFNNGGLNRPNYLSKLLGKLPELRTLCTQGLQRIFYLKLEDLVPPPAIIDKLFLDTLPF

As to `Nc1nc2ccc(OC(F)(F)F)cc2s1` [riluzole], the “extension of the course of the disease” value in test [1] was 2 months.

Take `Cn1cc(C2=C(c3ccc(Cl)cc3Cl)C(=O)NC2=O)c2ccccc21` [SB216763]: the “recruitment of Nurr1 at iNOS-promoter” value in test [2] is “Altered recruitment of Nurr1 to iNOS-promoter”; in test [2] (listed as SB21), “decreases the recruitment of Nurr1 at iNOS-promoter”. The “interaction (binding) of Nurr1 and p65” value is “inhibited the interaction of Nurr1 and p65 in BV2 cells in a dose-dependent manner” in test [3]; “impairs the binding of Nurr1 and p65 in a dose-dependent manner” in test [3] (listed as SB21). In addition, the “recruitment of Nurr1 to the TNFα-promoter” value is “blocked” in test [4] and “prevented the recruitment of Nurr1 to the TNFα-promoter” in test [4] (listed as SB21).

B1: NF-κB-p65, endogenous protein in mouse cells (other, UniProt Q04207 1-549, looked up)
chain: MDDLFPLIFPSEPAQASGPYVEIIEQPKQRGMRFRYKCEGRSAGSIPGERSTDTTKTHPTIKINGYTGPGTVRISLVTKDPPHRPHPHELVGKDCRDGYYEADLCPDRSIHSFQNLGIQCVKKRDLEQAISQRIQTNNNPFHVPIEEQRGDYDLNAVRLCFQVTVRDPAGRPLLLTPVLSHPIFDNRAPNTAELKICRVNRNSGSCLGGDEIFLLCDKVQKEDIEVYFTGPGWEARGSFSQADVHRQVAIVFRTPPYADPSLQAPVRVSMQLRRPSDRELSEPMEFQYLPDTDDRHRIEEKRKRTYETFKSIMKKSPFNGPTEPRPPTRRIAVPTRNSTSVPKPAPQPYTFPASLSTINFDEFSPMLLPSGQISNQALALAPSSAPVLAQTMVPSSAMVPLAQPPAPAPVLTPGPPQSLSAPVPKSTQAGEGTLSEALLHLQFDADEDLGALLGNSTDPGVFTDLASVDNSEFQQLLNQGVSMSHSTAEPMLMEYPEAITRLVTGSQRPPDPAPTPLGTSGLPNGLSGDEDFSSIADMDFSALLSQISS
notes: Endogenous protein, detected with anti-p65 (C-20, Santa Cruz)
On to B1, for which the binding result in test [5] is reported as “binds”.
